According to PMC9667936, “Functional mapping of the 14-3-3 hub protein as a guide to design 14-3-3 molecular glues” (Chemical Science, 2022):
Where a SMILES comes first, the peptide text is derived from it. [ ]: non-standard residue; d: D form. The star is where a group is joined. ξ: configuration not given here. FITC = O=C1OC2(c3ccc(O)cc3Oc3cc(O)ccc32)c2ccc(NC(=S)*)cc21; Phe(4-NO2) = N[C@@H](Cc1ccc([N+](=O)[O-])cc1)C(=O)O; ξAla(4-thiazolyl) = NC(Cc1cscn1)C(=O)O; pS = N[C@@H](COP(=O)(O)O)C(=O)O; β3hS = N[C@@H](CO)CC(=O)O; Nva = CCC[C@H](N)C(=O)O; ξβ3hS = NC(CO)CC(=O)O; βAla = NCCC(=O)O

Columns and labels:
14-3-3γ/ChREBP = target: T1, 14-3-3γ/ChREBP (Homo sapiens, UniProt P61981+Q9NP71); experiment: FA ChREBP titration to FITC-labelled peptide with or without 14-3-3 (ternary complex formation); type: binding; details: for ternary complex formation (anisotropy) on ChREBP titration in presence of 14-3-3γ: ChREBP titrated to preformed complex of 14-3-3γ and FITC-labelled peptide, Fig. 5d
T1 construct: made in house; host or cells: E. coli NiCo21 (DE3) for 14-3-3 gamma; ChREBP is a synthetic peptide
T1 sequence (P61981 1-247): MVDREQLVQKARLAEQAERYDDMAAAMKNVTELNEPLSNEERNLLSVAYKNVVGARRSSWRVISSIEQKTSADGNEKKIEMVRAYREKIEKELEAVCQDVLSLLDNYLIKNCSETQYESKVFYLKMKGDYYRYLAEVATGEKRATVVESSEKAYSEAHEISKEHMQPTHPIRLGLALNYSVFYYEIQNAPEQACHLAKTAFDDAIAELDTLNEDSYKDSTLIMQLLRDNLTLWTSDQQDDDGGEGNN
T1 sequence (Q9NP71 118-142 partner limits assumed): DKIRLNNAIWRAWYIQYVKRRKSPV
Protocol: performed twice per cycle with 20% v/v piperidine in N,N-dimethylformamide (DMF) for five minutes.
Fmoc-protected amino acids were mixed with 9 equivalents HBTU (0.38 M in DMF) and 15 equivalents of DIPEA, and coupled to the resin for 30 minutes (except pS, which is coupled for 60 minutes).
Peptides 1 and 2e-i were labeled with fluorescein via a 5-(-fluorenylmehyloxycarbonyl-amino)-3-oxapentanoic acid (O1-Pen) linker using 5 equivalents of FITC and 7.5 equivalents of DIPEA reacting overnight with continuous agitation. Removal of protecting groups and cleavage of the resin was performed by incubation in a mixture of trifluoroacetic acid (TFA), H2O, and triisopropylsilane (TIS) (96.5:2.5:1) for 2 hours with continuous agitation, followed by precipitation in an excess of ice-cold […]
Peptides 1 and 2a-d were FITC labeled via a three-step approach. The free amine on the N-terminus was protected as follows: to a solution of di-tert-butyl decarbonate (10 eq, 400 mM) in DCM was added DIEA (10 eq), and solution was added to the resin. Coupling was allowed to proceed for 1 h. At this time, resin was washed 3x with DCM and coupling was repeated as described. […]
All peptides were purified using preparative HP-LC. […] The purity of the samples was assessed using a UV detector at 254 […]
Fluorescence anisotropy (FA) - binary binding studies: 14-3-3γ was titrated in a 2-fold dilution series (starting at 100 or 400 µM 14-3-3γ) to 10 nM of fluorescein-labeled peptide in FA buffer (10 mM HEPES pH 7.4, 150 mM NaCl, 0.1% (v/v) Tween20, 0.1% (w/v) BSA). […]
Measurements were performed directly after plate preparation, using a Tecan Infinite F500 plate reader at room temperature (lex: 485 ± 20 nm; lem: 535 ± 25 nm; mirror: Dichroic 510; flashes: 20; integration time: 50 ms; settle time: 0 ms; gain: optimal; and Z-position: calculated from well). […] All data were analyzed using GraphPad Prism (7.00) for Windows and fitted using a four-parameter logistic model (4PL). Each measurement was performed in three independent experiments, average and standard deviations were calculated in Excel […]

14-3-3 = details: hits of a 10^8-membered synthetic non-canonical phosphopeptide library; read-out: affinity for 14-3-3; cited from earlier work
Text: We selected peptide 14-3-3.12, herein termed peptide 1, from the top hits for functional mapping. […] Further, the peptide completely occupies the 14-3-3 binding groove, thus allowing to explore both sides flanking 14-3-3's central phospho-accommodating pocket.

Row | SMILES | ternary complex formation (anisotropy) on ChREBP titration in presence of 14-3-3γ (14-3-3γ/ChREBP) | increase in anisotropy on ChREBP titration to FITC-labelled peptide alone (14-3-3γ/ChREBP; no 14-3-3 present, Fig. 5e) | Kd (14-3-3) [nM]
1 | C[C@H](NC(=O)[C@H](CCCCN)NC(=O)[C@H](Cc1ccc([N+](=O)[O-])cc1)NC(=O)CCNC(=O)C[C@H](CO)NC(=O)[C@H](Cc1ccc([N+](=O)[O-])cc1)NC(=O)[C@H](COP(=O)(O)O)NC(=O)C(N)Cc1cscn1)C(=O)N[C@@H](CCCCNC(=S)Nc1ccc2c(c1)C(=O)OC21c2ccc(O)cc2Oc2cc(O)ccc21)C(N)=O (stereo partly drawn) [2c] (H-[ξAla(4-thiazolyl)][pS][Phe(4-NO2)][β3hS][βAla][Phe(4-NO2)]KAK(FITC)-NH2) | lack of increase in anisotropy values |  | 
2 | C[C@H](NC(=O)[C@H](CCCCN)NC(=O)[C@H](Cc1ccc([N+](=O)[O-])cc1)NC(=O)CCNC(=O)C[C@H](CO)NC(=O)[C@H](Cc1ccc([N+](=O)[O-])cc1)NC(=O)[C@@H](N)COP(=O)(O)O)C(=O)N[C@@H](CCCCNC(=S)Nc1ccc2c(c1)C(=O)OC21c2ccc(O)cc2Oc2cc(O)ccc21)C(N)=O [2d] (H-[pS][Phe(4-NO2)][β3hS][βAla][Phe(4-NO2)]KAK(FITC)-NH2) | dose-dependent increase in 14-3-3/ChREBP/2d complex formation | not observed | 
3 | CCC[C@H](NC(=O)[C@H](N)CCCCN)C(=O)N[C@@H](Cc1ccc([N+](=O)[O-])cc1)C(=O)NC(Cc1cscn1)C(=O)N[C@@H](COP(=O)(O)O)C(=O)N[C@@H](Cc1ccc([N+](=O)[O-])cc1)C(=O)NC(CO)CC(=O)NCCC(=O)N[C@@H](Cc1ccc([N+](=O)[O-])cc1)C(=O)N[C@@H](CCCCN)C(N)=O (stereo partly drawn) [compound 1] (H-[dK][Nva][Phe(4-NO2)][ξAla(4-thiazolyl)][pS][Phe(4-NO2)][ξβ3hS][βAla][Phe(4-NO2)]K-NH2) |  |  | 19
